Assay results reported in ChEMBL document CHEMBL1201861, “Genomics of Drug Sensitity in Cancer screening data, Wellcome Trust Sanger Institute”.

Columns and labels:
Experiment in all cases: cells
MeWo = format: functional, cell-based, Homo sapiens; details: Homo sapiens, MeWo;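 note: growth inhibition of MeWo cells, determined by a cell viability readout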
Description: SANGER: Inhibition of human Mewo cell growth in a cell viability assay.

OS-RC-2 = format: functional, cell-based, Homo sapiens; details: Homo sapiens, OS-RC-2;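 note: growth inhibition of human OS-RC-2 cells, measured by a cell viability assay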
Description: SANGER: Inhibition of human OS-RC-2 cell growth in a cell viability assay.

Ca9-22 = format: functional, cell-based, Homo sapiens; details: Homo sapiens, Ca9-22;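 note: growth inhibition of Ca9-22 cells, read out with a cell viability assay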
Description: SANGER: Inhibition of human Ca9-22 cell growth in a cell viability assay.

GAMG = format: functional, cell-based, Homo sapiens; details: Homo sapiens, GAMG;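 note: cell growth inhibition measured by a viability assay in the GAMG human cell line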
Description: SANGER: Inhibition of human GAMG cell growth in a cell viability assay.

KURAMOCHI = format: functional, cell-based; details: Homo sapiens;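 note: growth inhibition of KURAMOCHI cells, read out with a cell viability assay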
Description: SANGER: Inhibition of human KURAMOCHI cell growth in a cell viability assay.

DJM-1 = format: functional, cell-based, Homo sapiens; details: Homo sapiens, DJM-1;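 note: growth inhibition of human DJM-1 cells, read out by a cell viability assay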
Description: SANGER: Inhibition of human DJM-1 cell growth in a cell viability assay.

RO82-W-1 = format: functional, cell-based, Homo sapiens; details: Homo sapiens, RO82-W-1;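 note: growth inhibition of human RO82-W-1 cells, measured with a cell viability assay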
Description: SANGER: Inhibition of human RO82-W-1 cell growth in a cell viability assay.

HCC1419 = format: functional, cell-based, Homo sapiens; details: Homo sapiens, HCC1419;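 note: growth inhibition of human HCC1419 cells, read out as cell viability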
Description: SANGER: Inhibition of human HCC1419 cell growth in a cell viability assay.

Panc1005 = format: functional, cell-based, Homo sapiens; details: Homo sapiens, Panc1005;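 note: growth inhibition of human PANC-10-05 cells, measured by a cell viability assay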
Description: SANGER: Inhibition of human PANC-10-05 cell growth in a cell viability assay.

EFM-19 = format: functional, cell-based, Homo sapiens; details: Homo sapiens, EFM-19;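 note: growth inhibition of human EFM-19 cells, measured in a cell viability assay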
Description: SANGER: Inhibition of human EFM-19 cell growth in a cell viability assay.

M059J = format: functional, cell-based, Homo sapiens; details: Homo sapiens, M059J;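 note: growth inhibition of M059J cells, read out with a cell viability assay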
Description: SANGER: Inhibition of human M059J cell growth in a cell viability assay.

SF-295 = format: functional, cell-based, Homo sapiens; details: Homo sapiens, SF-295; read-out: IC50;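 note: growth inhibition of SF-295 cells, read out with a cell viability assay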
Description: SANGER: Inhibition of human SF295 cell growth in a cell viability assay.

LS-123 = format: functional, cell-based, Homo sapiens; details: Homo sapiens, LS-123
Description: SANGER: Inhibition of human LS-123 cell growth in a cell viability assay.

LNCaP-Clone-FGC = format: functional, cell-based, Homo sapiens; details: Homo sapiens, LNCaP-Clone-FGC
Description: SANGER: Inhibition of human LNCaP-Clone-FGC cell growth in a cell viability assay.

HCE-T = format: functional, cell-based, Homo sapiens; details: Homo sapiens, HCE-T;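 note: cell viability assay read-out, reporting inhibition of HCE-T cell growth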
Description: SANGER: Inhibition of human HCE-T cell growth in a cell viability assay.

RD = format: functional, cell-based, Homo sapiens; details: Homo sapiens, RD
Description: SANGER: Inhibition of human RD cell growth in a cell viability assay.

DU-4475 = format: functional, cell-based; details: Homo sapiens
Description: SANGER: Inhibition of human DU-4475 cell growth in a cell viability assay.

COLO-800 = format: functional, cell-based, Homo sapiens; details: Homo sapiens, COLO-800;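 note: growth inhibition of COLO-800 cells, read out with a cell viability assay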
Description: SANGER: Inhibition of human COLO-800 cell growth in a cell viability assay.

C2BBe1 = format: functional, cell-based, Homo sapiens; details: Homo sapiens, C2BBe1;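 note: growth inhibition of C2BBe1 cells, read out through a viability assay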
Description: SANGER: Inhibition of human C2BBe1 cell growth in a cell viability assay.

MDA-MB-157 = format: functional, cell-based, Homo sapiens; details: Homo sapiens, MDA-MB-157
Description: SANGER: Inhibition of human MDA-MB-157 cell growth in a cell viability assay.

SJSA-1 = format: functional, cell-based, Homo sapiens; details: Homo sapiens, SJSA-1;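 note: growth inhibition of human SJSA-1 cells, read out through a cell viability measurement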
Description: SANGER: Inhibition of human SJSA-1 cell growth in a cell viability assay.

OE33 = format: functional, cell-based, Homo sapiens; details: Homo sapiens, OE33;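 note: growth inhibition of human OE33 cells, measured by a cell viability assay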
Description: SANGER: Inhibition of human OE33 cell growth in a cell viability assay.

TE-8 = format: functional, cell-based, Homo sapiens; details: Homo sapiens, TE-8;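 note: growth inhibition of TE-8 cells, measured with a cell viability readout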
Description: SANGER: Inhibition of human TE-8 cell growth in a cell viability assay.

UACC-62 = format: functional, cell-based, Homo sapiens; details: Homo sapiens, UACC-62;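 note: growth inhibition of human UACC-62 cells, read out by a cell viability assay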
Description: SANGER: Inhibition of human UACC-62 cell growth in a cell viability assay.

BB65-RCC = format: functional, cell-based, Homo sapiens; details: Homo sapiens, BB65-RCC;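 note: growth inhibition of the cell line, measured with a cell viability assay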
Description: SANGER: Inhibition of human BB65-RCC cell growth in a cell viability assay.

LB2241-RCC = format: functional, cell-based, Homo sapiens; details: Homo sapiens, LB2241-RCC;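 note: cell viability assay measuring how strongly the cultured human renal carcinoma line is prevented from growing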
Description: SANGER: Inhibition of human LB2241-RCC cell growth in a cell viability assay.

NCI-H1793 = format: functional, cell-based, Homo sapiens; details: Homo sapiens, NCI-H1793;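 note: cell growth inhibition, read out by a cell viability assay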
Description: SANGER: Inhibition of human NCI-H1793 cell growth in a cell viability assay.

U2OS = format: functional, cell-based, Homo sapiens, U-2-OS; details: Homo sapiens, U2OS;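 note: growth inhibition of human U-2-OS cells, determined with a cell viability assay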
Description: SANGER: Inhibition of human U-2-OS cell growth in a cell viability assay.

CAL-39 = format: functional, cell-based, Homo sapiens; details: Homo sapiens, CAL-39;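 note: cell viability assay measuring growth inhibition of CAL-39 cells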
Description: SANGER: Inhibition of human CAL-39 cell growth in a cell viability assay.

SK-N-DZ = format: functional, cell-based, Homo sapiens; details: Homo sapiens, SK-N-DZ;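 note: growth inhibition of the cancer cell line, read out through a viability assay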
Description: SANGER: Inhibition of human SK-N-DZ cell growth in a cell viability assay.

OCUB-M = format: functional, cell-based, Homo sapiens; details: Homo sapiens, OCUB-M;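 note: growth inhibition of the cancer cell line, read out through a cell viability assay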
Description: SANGER: Inhibition of human OCUB-M cell growth in a cell viability assay.

NCI-H2452 = format: functional, cell-based, Homo sapiens; details: Homo sapiens, NCI-H2452;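 note: growth inhibition of NCI-H2452 cells, read out with a cell viability assay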
Description: SANGER: Inhibition of human NCI-H2452 cell growth in a cell viability assay.

OVCAR-3 = format: functional, cell-based, Homo sapiens; details: Homo sapiens, OVCAR-3;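 note: growth inhibition of human OVCAR-3 cells, determined by a cell viability assay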
Description: SANGER: Inhibition of human OVCAR-3 cell growth in a cell viability assay.

TE-1 = format: functional, cell-based, Homo sapiens; details: Homo sapiens, TE-1;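 note: growth inhibition of the human TE-1 cell line, read out with a cell viability assay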
Description: SANGER: Inhibition of human TE-1 cell growth in a cell viability assay.

KYSE-520 cell line = format: functional, cell-based, Homo sapiens; details: Homo sapiens, KYSE-520;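 note: growth inhibition of human KYSE-520 cells, read out with a viability assay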
Description: SANGER: Inhibition of human KYSE-520 cell growth in a cell viability assay.

PANC-08-13 = format: functional, cell-based, Homo sapiens; details: Homo sapiens, PANC-08-13;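 note: cell growth inhibition, measured with a cell viability assay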
Description: SANGER: Inhibition of human PANC-08-13 cell growth in a cell viability assay.

Capan-2 = format: functional, cell-based, Homo sapiens; details: Homo sapiens, Capan-2;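 note: Capan-2 cell growth inhibition, read out with a viability assay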
Description: SANGER: Inhibition of human Capan-2 cell growth in a cell viability assay.

COLO-678 = format: functional, cell-based, Homo sapiens; details: Homo sapiens, COLO-678
Description: SANGER: Inhibition of human COLO-678 cell growth in a cell viability assay.

COLO-829 = format: functional, cell-based, Homo sapiens; details: Homo sapiens, COLO-829
Description: SANGER: Inhibition of human COLO-829 cell growth in a cell viability assay.

ES6 = format: functional, cell-based, Homo sapiens; details: Homo sapiens, ES6;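 note: growth inhibition of human ES6 cells, read out with a cell viability assay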
Description: SANGER: Inhibition of human ES6 cell growth in a cell viability assay.

MIA PaCa-2 = format: functional, cell-based, Homo sapiens; details: Homo sapiens, MIA PaCa-2;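 note: growth inhibition of MIA PaCa-2 cells, read out with a cell viability assay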
Description: SANGER: Inhibition of human MIA-PaCa-2 cell growth in a cell viability assay.

NCI-H226 = format: functional, cell-based, Homo sapiens; details: Homo sapiens, NCI-H226;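 note: cell viability read-out used to gauge growth inhibition of the cells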
Description: SANGER: Inhibition of human NCI-H226 cell growth in a cell viability assay.

NCI-H1437 = format: functional, cell-based, Homo sapiens; details: Homo sapiens, NCI-H1437;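 note: growth inhibition of human NCI-H1437 cells, read out by a cell viability assay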
Description: SANGER: Inhibition of human NCI-H1437 cell growth in a cell viability assay.

C32 = format: functional, cell-based, Homo sapiens; details: Homo sapiens, C32;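 note: cell viability assay, with IC50 reflecting inhibition of C32 cell growth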
Description: SANGER: Inhibition of human C32 cell growth in a cell viability assay.

PC-3 = format: functional, cell-based, Homo sapiens; details: Homo sapiens, PC-3;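 note: cell viability assay measuring growth inhibition of PC-3 cells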
Description: SANGER: Inhibition of human PC-3 cell growth in a cell viability assay.

SW837 = format: functional, cell-based, Homo sapiens; details: Homo sapiens, SW837;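 note: growth inhibition of SW837 cells, determined with a cell viability assay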
Description: SANGER: Inhibition of human SW837 cell growth in a cell viability assay.

LN-405 = format: functional, cell-based, Homo sapiens; details: Homo sapiens, LN-405
Description: SANGER: Inhibition of human LN-405 cell growth in a cell viability assay.

SNB-75 = format: functional, cell-based, Homo sapiens; details: Homo sapiens, SNB-75;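 note: cell viability assay measuring growth inhibition of human SNB-75 cells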
Description: SANGER: Inhibition of human SNB75 cell growth in a cell viability assay.

NCI-H510A = format: functional, cell-based; details: Homo sapiens;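 note: growth inhibition of NCI-H510A cells, read out with a cell viability assay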
Description: SANGER: Inhibition of human NCI-H510A cell growth in a cell viability assay.

Measured: IC50

CCOc1nc(NC(=O)Cc2cc(OC)ccc2OC)cc(N)c1C#N
6.58 µM: LB2241-RCC
> 10 µM: MeWo | OS-RC-2 | Ca9-22 | GAMG | KURAMOCHI | DJM-1 | RO82-W-1 | HCC1419 | Panc1005 | EFM-19 | M059J | SF-295 | LS-123 | LNCaP-Clone-FGC | HCE-T | RD | DU-4475 | COLO-800 | C2BBe1 | MDA-MB-157 | SJSA-1 | OE33 | TE-8 | UACC-62 | BB65-RCC | NCI-H1793 | U2OS | CAL-39 | SK-N-DZ | OCUB-M | NCI-H2452 | OVCAR-3 | TE-1 | KYSE-520 cell line | PANC-08-13 | Capan-2 | COLO-678 | COLO-829 | ES6 | MIA PaCa-2 | NCI-H226 | NCI-H1437 | C32 | PC-3 | SW837 | LN-405 | SNB-75

CC(=O)O[C@@H]1[C@@H](OC(C)=O)[C@@H](O)[C@H](Oc2c(-c3ccc(O)cc3)oc3cc(O)cc(O)c3c2=O)O[C@H]1C
> 10 µM: MeWo | OS-RC-2 | Ca9-22 | GAMG | KURAMOCHI | DJM-1 | RO82-W-1 | HCC1419 | Panc1005 | EFM-19 | M059J | SF-295 | LS-123 | LNCaP-Clone-FGC | HCE-T | RD | COLO-800 | C2BBe1 | MDA-MB-157 | SJSA-1 | OE33 | TE-8 | UACC-62 | BB65-RCC | LB2241-RCC | NCI-H1793 | U2OS | CAL-39 | SK-N-DZ | OCUB-M | NCI-H2452 | OVCAR-3 | TE-1 | KYSE-520 cell line | PANC-08-13 | Capan-2 | COLO-678 | COLO-829 | ES6 | MIA PaCa-2 | NCI-H226 | NCI-H1437 | C32 | PC-3 | SW837 | LN-405 | SNB-75
7.65 µM: DU-4475

COc1cc(F)c(F)c(Nc2ccc(I)cc2F)c1NS(=O)(=O)C1(CC(O)CO)CC1 (stereo not given)
2.96 µM: KYSE-520 cell line
> 5 µM: OS-RC-2 | GAMG | KURAMOCHI | DJM-1 | RO82-W-1 | HCC1419 | Panc1005 | EFM-19 | M059J | SF-295 | LNCaP-Clone-FGC | HCE-T | COLO-800 | MDA-MB-157 | OE33 | UACC-62 | NCI-H1793 | SK-N-DZ | OCUB-M | NCI-H2452 | OVCAR-3 | TE-1 | PANC-08-13 | Capan-2 | ES6 | NCI-H226 | PC-3 | SW837 | LN-405 | SNB-75
0.415 µM: CAL-39
0.0183 µM: DU-4475
0.753 µM: MeWo
0.0572 µM: C32
0.981 µM: Ca9-22
0.559 µM: C2BBe1
3.28 µM: RD
2.75 µM: U2OS
3.3 µM: LB2241-RCC
2.51 µM: LS-123
0.158 µM: SJSA-1
3.66 µM: BB65-RCC
1.73 µM: COLO-829
1.12 µM: TE-8
2.82 µM: MIA PaCa-2
0.702 µM: NCI-H1437
2.11 µM: COLO-678

O=C1N=C(NCc2cccs2)S/C1=C\c1ccc2ncccc2c1
2.02 µM: SK-N-DZ
> 5 µM: MeWo | OS-RC-2 | Ca9-22 | GAMG | KURAMOCHI | DJM-1 | RO82-W-1 | HCC1419 | Panc1005 | EFM-19 | M059J | SF-295 | LS-123 | LNCaP-Clone-FGC | HCE-T | RD | DU-4475 | COLO-800 | C2BBe1 | MDA-MB-157 | SJSA-1 | OE33 | TE-8 | UACC-62 | BB65-RCC | LB2241-RCC | NCI-H1793 | U2OS | CAL-39 | OCUB-M | NCI-H2452 | OVCAR-3 | TE-1 | KYSE-520 cell line | PANC-08-13 | Capan-2 | COLO-678 | COLO-829 | ES6 | MIA PaCa-2 | NCI-H226 | NCI-H1437 | C32 | PC-3 | SW837 | LN-405 | SNB-75

COC(=O)CNC(=O)C(=O)OC
566 µM: MDA-MB-157
537 µM: LB2241-RCC
1010 µM: TE-1
230 µM: MeWo
1730 µM: C2BBe1
338 µM: Capan-2
1380 µM: GAMG
2640 µM: TE-8
237 µM: NCI-H510A
19.3 µM: CAL-39
139 µM: MIA PaCa-2
1080 µM: EFM-19
215 µM: DJM-1
206 µM: OVCAR-3
438 µM: SNB-75
541 µM: M059J
90.8 µM: NCI-H1437
344 µM: SF-295
2380 µM: BB65-RCC
2000 µM: COLO-678
1570 µM: KURAMOCHI
278 µM: SJSA-1
3210 µM: LNCaP-Clone-FGC
418 µM: PC-3
1460 µM: PANC-08-13
111 µM: COLO-829
858 µM: SW837
264 µM: Panc1005
966 µM: NCI-H2452
1750 µM: OS-RC-2
899 µM: DU-4475
3540 µM: ES6
613 µM: KYSE-520 cell line
924 µM: Ca9-22
421 µM: OE33
3090 µM: SK-N-DZ
> 4000 µM: RO82-W-1 | HCC1419 | LS-123 | COLO-800 | UACC-62 | OCUB-M | NCI-H226 | C32
2950 µM: NCI-H1793
692 µM: RD
3440 µM: HCE-T
1610 µM: LN-405
